Experimental data: patent US20140023650A1, “Methods of Treating and/or Preventing Cell Proliferation Disorders with IL-17 Antagonists” (INSTITUT MEDICAL DE LA SANTE ET DE LA RECHERCHE MEDICALE, priority 2010, published 2014)

Columns and labels:
[1] = test system: MCF7; experiment: CD24/CD44 flow cytometry (cancer stem cells), MCF7; type: cell-based, human; settings: MCF7 upon IL-17 exposure; ~0% untreated (FIG. 17C)
Protocol: (§1) FIG. 17: IL-17 induces Epithelial to Mesenchymal Transition (EMT) in well differentiated and non-metastatic MCF7 breast cancer cells which increases MCF7 cancer cell migration, invasion and sternness. MCF7 cells were untreated (NT) or treated TGFβ (8 ng/mL) or IL-17 (10 ng/mL) for 9 days. (A) IL-17 (but not TGFβ) induces EMT characterized by loss of epithelial marker E-Cadherin (which, in color, fluoresces in green) and gain of mesenchymal marker Vimentin (which, in color, fluoresces in red) as assessed by immunofluorescence. (B) IL-17 enhances migratory (black bars) and invasive (white bars) abilities of MCF7 cancer cells as assessed in Boyden chamber assays. (C-1 to C-3) IL-17 increases the number of CD24^low CD44^high stem cells in MCF7 cancer cells. Flow cytometry assay showing CD24 and CD44 expression in untreated (NT) and IL-17-treated MCF7 cells (IL-17). Decreased CD24 and increased CD44 expression is indicative of cancer stem cells. Red box indicates the cancer stem cell population.
Expression of human IL-17R (FAB177P, R&D system), CD24 (BD Pharmingen) and CD44 (BD Pharmingen) was determined by flow cytometry on a FACSCalibur flow cytometer (BD Biosciences) and analyzed using FlowJo software (Tree star). The antibodies were used at 1/25, 1/100 and 1/100 respectively.

[2] = test system: MCF10A; experiment: Transwell migration and Matrigel invasion assays, MCF10A; type: cell-based, human; settings: for increase in cell invasion / increase in cell migration: TNFα 100 ng/mL or TGFβ 8 ng/mL, 9 days
Protocol: (§2) FIG. 16: IL-17 induces Epithelial to Mesenchymal Transition (EMT) via Twist-1 upregulation in mammary epithelial cells which increases cell migration, invasion and stemness. Human immortalized mammary epithelial cells (MCF10A) cells were untreated (NT) or treated with TNFα (100 ng/mL), TGF (8 ng/mL) or IL-17 (10 ng/mL) for 9 days. (A) MCF10A cells were first transduced using shRNA lentiviral constructs targeting the LUCIFERASE gene (shCt), AICDA gene (shAICDA) or TWIST1 gene (shTWIST1) mRNA and then treated with cytokines as indicated above. IL-17 (but no TNFα or TGFβ) induces EMT in ShCt and ShAICDA MCF10A characterized by loss of epithelial marker E-Cadherin (which, in color, fluoresces in green) and gain of mesenchymal marker Vimentin (which, in color, fluoresces in red) as assessed by immunofluorescence. […] (B) IL-17 (but no TNFα or TGFβ) induces EMT characterized by loss of epithelial markers E-Cadherin, α-Catenin and Occludin and gain of mesenchymal markers N-Cadherin and Vimentin as assessed by immunobloting. Actin was used as a loading control. (C) IL-17 enhances migratory (black bars) and invasive (white bars) abilities of MCF10A cells as assessed in Boyden chamber assays. (D-1 to D-3) IL-17 increases the number of CD24^low CD44^high stem cells in MCF10A cells. Flow cytometry assay showing CD24 and CD44 expression in untreated (NT) and IL-17-treated MCF10A cells (IL-17). Decreased CD24 and increased CD44 expression is indicative of normal stem cells. Red box indicates the stem cell population.
For transwell migration assay, 5·10^4 cells were plated in the top chamber with the non-coated membrane (24-well insert; pore size, […]; BD Biosciences). For invasion assay, 5·10^4 cells were plated in the top chamber with Matrigel-coated membrane (24-well insert; pore size, […]; BD Biosciences). In both assays, cells were plated in 1% serum medium, and 10% serum medium was used as a chemo-attractant in the lower chamber. The cells were incubated for 24 h. Cells that reached the lower chamber were stained with Giemsa and counted. Total number of migrating/invading cell was calculated by analyzing 5 fields per well in two independent experiments, that is 10 fields per condition.

[3] = test system: MCF7 breast cancer cells; experiment: Boyden chamber migration and invasion assays, MCF7; type: cell-based, human; settings: MCF7, IL-17 10 ng/mL, stimulated (FIG. 17B)
Excerpt: as §1, with “MCF7 cells were untreated (NT) or treated TGFβ (8 ng/mL) or IL-17 (10 ng/mL) for 9 days.” left out
For transwell migration assay, 5·10^4 cells were plated in the top chamber with the non-coated membrane (24-well insert; pore size, […]; BD Biosciences). […] Cells that reached the lower chamber were stained with Giemsa and counted. Total number of migrating/invading cell was calculated by analyzing 5 fields per well in two independent experiments, that is 10 fields per condition.

[4] = test system: MCF10A; experiment: CD24/CD44 flow cytometry (stem cells), MCF10A; type: cell-based, human; settings: MCF10A upon IL-17 exposure; ~16% untreated (FIG. 16D)
Protocol: as §2, with “Actin was used as a loading control.” left out, “(D-1 to D-3) IL-17 increases the number of CD24^low CD44^high stem cells in MCF10A cells. Flow cytometry assay showing CD24 and CD44 expression in untreated (NT) and IL-17-treated MCF10A cells (IL-17). Decreased CD24 and increased CD44 expression is indicative of normal stem cells. Red box indicates the stem cell population.” left out
Expression of human IL-17R (FAB177P, R&D system), CD24 (BD Pharmingen) and CD44 (BD Pharmingen) was determined by flow cytometry on a FACSCalibur flow cytometer (BD Biosciences) and analyzed using FlowJo software (Tree star). […]

[5] = test system: B cell clones; experiment: Cell viability of B cell clones (propidium iodide uptake, flow cytometry); type: cell-based, human; settings: doxorubicin 300 nM, 96 h, no antibodies
Protocol: FIG. 4: Autocrine production of IL-17 and BAFF protects B cell clones from doxorubicin-mediated cell death. (A) B cell clones secrete IL-17 and BAFF. B104 human B lymphoma cells and B cell clones DN1#1, DN1#2, DN1#3, DN1#4, DN2#5 and DN2#6 (see FIG. 3, above) were seeded at 10^5 cell/mL in medium alone and maintained in culture for 5 days. At day 5, IL-17 and BAFF concentration in cell culture supernatants was determined by ELISA. (B-1 to B-6) IL-17 and BAFF neutralizing antibodies induce B cell clone apoptosis and increase doxorubicin-induced apoptosis. […] Viability was assessed by propridium iodide uptake and flow cytometry analysis. […] B104 human B lymphoma cell line, either non-treated (NT) or pre-treated for 24 h in the presence of CpG2006 (CpG, 2.5 μg/mL) or IL-17 (1 ng/mL) and BAFF (100 ng/mL) as indicated, as well as clones DN1#1, DN1#2, DN1#3, DN1#4, DN2#5 and DN2#6 were treated or not with doxorubicin (300 nM) for 6 h and then p53, p21 and actin protein expression was assessed by immunoblotting. […]
FIG. 8: Neutralizing antibodies to IL-17, BAFF, IL-6, and IL-10 induce apoptosis and sensitize B cell clones to chemotherapy (doxorubicin). […] Viability was assessed by propridium iodide uptake and flow cytometry analysis.
Cell viability was assessed by propidium iodide (Sigma) uptake. Data were acquired on a FACSCalibur (BD Biosciences) and were analyzed with Flowio software (TreeStar).

[6] = test system: patients with Rheumatoid Arthritis; settings: cited from earlier work
[7] = test system: SLE patients; settings: cited from earlier work

In the case of “IL-17: recombinant IL-17 (PeproTech, ref 200-17)”, the “percentage of CD24lowCD44high cancer stem cells” value [1] is reported as 67%, the “increase in ability to migrate in transwell migration assay” value ([2]; IL-17 10 ng/mL, 9 days (FIG. 16C, black bars)) is reported as ~16 fold and the “increase in invasive ability in Matrigel invasion assay” value ([2]; IL-17 10 ng/mL, 9 days (FIG. 16C, white bars)) is reported as ~10 fold. For the same molecule, the “increase in invasive ability” value [3] was ~10 fold, the “increase in migratory ability” value [3] was ~8 fold and the “percentage of CD24low/CD44high stem cells” value [4] was 71%.

In the case of `COc1cccc2c1C(=O)c1c(O)c3c(c(O)c1C2=O)C[C@@](O)(C(=O)CO)C[C@@H]3O[C@H]1C[C@H](N)[C@H](O)[C@H](C)O1` [doxorubicin], the “doxorubicin-induced apoptosis of B cell clones” value [5] is reported as “remarkably resistant”.

For TNFα, the “increase in cell invasion” value [2] was “no” and the “increase in cell migration” value [2] was “no”.

In the case of “LY2439821: humanized monoclonal antibody against IL-17A (Eli Lilly)”, the “efficacy compared to placebo” value ([6]; intravenous, certain doses, RA patients) is given as “statistically significantly more effective”.

In the case of “AIN 457: human anti-IL-17 monoclonal antibody (Novartis)”, the “patients in whom treatment was effective” value ([6]; Rheumatoid Arthritis, 27% of patients who received placebo) is listed as 46% and the “safety / tolerability in RA patients” value ([6]; patients with RA) is listed as “safe”.

For “TGFβ: recombinant TGFβ (PeproTech, 100-21)”, the “increase in cell invasion” value [2] was “weak” and the “increase in cell migration” value [2] was “weak”.

In the case of Belimumab: humanized anti-BAFF antibody, the “biological activity in SLE patients” value [7] is given as “biologically active” and the “tolerability in SLE patients” value [7] is given as “well tolerated”.
